# From patent US20210355109A1, “CRYSTAL FORM OF MALEATE OF TYROSINE KINASE INHIBITOR AND PREPARATION METHOD THEREFOR” (JIANGSU HENGRUI MEDICINE CO., LTD., priority 2018, published 2021)
# Legend:
# Assay type in all cases: physicochemical
# [1] = Influencing-factor stability of I crystal form and amorphous form, purity by HPLC (Agilent1200 DAD); details: for stability after long-term storage (in words): high temperature, high humidity
# Text: The stability of the I crystal form of the compound represented by formula (I) was investigated. The purity of the crystal form was detected by Agilent1200 DAD high performance liquid chromatography system, and Waters symmetry C18, (250*4.6 mm, 5 μm) was used as the detection column, mobile phase: sodium dihydrogen phosphate/ACN/H2O, detection wavelength: 261 nm.
# [2] = Influencing-factor stability of I and IV crystal forms, purity by HPLC (Thermo Ultimate3000DAD); details: for crystal stability (in words): conditions of light, high temperature, and high humidity
# Text: The stability of the I and IV crystal form of the compound represented by formula (I) was investigated. The purity of the crystal forms was detected by Thermo Ultimate3000DAD high-performance liquid chromatography system, and Waters symmetry C18, (250*4.6 mm, 5 μm) was used as the detection chromatographic column, mobile phase: sodium dihydrogen phosphate/ACN/H2O, detection wavelength: 261 nm.
# [3] = Solid properties / fluidity of crystal form
Compound,"purity % ([1]; 40° C., day 0)","purity % ([1]; 40° C., day 5)","purity % ([1]; 40° C., day 10)","purity % ([1]; 40° C., day 30)","purity % ([1]; RH 75%, day 0)","purity % ([1]; RH 75%, day 5)","purity % ([1]; RH 75%, day 10)","purity % ([1]; RH 75%, day 30)","purity % ([1]; RH 90%, day 0)","purity % ([1]; RH 90%, day 5)","purity % ([1]; RH 90%, day 10)","purity % ([1]; RH 90%, day 30)","purity % ([1]; illumination, day 0)","purity % ([1]; illumination, day 5)","purity % ([1]; illumination, day 10)","purity % ([1]; illumination, day 30)","purity % ([2]; 40° C., day 0)","purity % ([2]; 40° C., day 5)","purity % ([2]; 40° C., day 10)","purity % ([2]; 40° C., day 30)",further results
CCOc1cc2ncc(C#N)c(Nc3ccc(OCc4ccccn4)c(Cl)c3)c2cc1NC(=O)/C=C/[C@H]1CCCN1C.O=C(O)/C=C\C(=O)O [I crystal form],99.56%,99.55%,99.51%,99.43%,99.56%,99.53%,99.53%,99.52%,99.56%,99.53%,99.54%,99.51%,99.56%,99.35%,99.29%,99.00%,99.83%,99.78%,99.77%,99.69%,"stability after long-term storage (in words) ([1]; illumination): good physical and chemical stability; purity % ([2]; 60° C., day 0): 99.83%; purity % ([2]; 60° C., day 5): 99.64%; purity % ([2]; 60° C., day 10): 99.51%; purity % ([2]; 60° C., day 30): 99.24%; purity % ([2]; RH 75%, day 0): 99.83%; purity % ([2]; RH 75%, day 5): 99.81%; purity % ([2]; RH 75%, day 10): 99.81%; purity % ([2]; RH 75%, day 30): 99.68%; purity % ([2]; RH 90%, day 0): 99.83%; purity % ([2]; RH 90%, day 5): 99.81%; purity % ([2]; RH 90%, day 10): 99.82%; purity % ([2]; RH 90%, day 30): 99.82%; crystal stability (in words) [2]: good crystal stability; purity % ([2]; illumination, day 0): 99.83%; purity % ([2]; illumination, day 5): 99.68%; purity % ([2]; illumination, day 10): 99.59%; purity % ([2]; illumination, day 30): 99.29%"
CCOc1cc2ncc(C#N)c(Nc3ccc(OCc4ccccn4)c(Cl)c3)c2cc1NC(=O)/C=C/[C@H]1CCCN1C.O=C(O)/C=C\C(=O)O [II crystal form],–,–,–,–,–,–,–,–,–,–,–,–,–,–,–,–,–,–,–,–,fluidity [3]: poor
CCOc1cc2ncc(C#N)c(Nc3ccc(OCc4ccccn4)c(Cl)c3)c2cc1NC(=O)/C=C/[C@H]1CCCN1C.O=C(O)/C=C\C(=O)O [IV crystal form],–,–,–,–,–,–,–,–,–,–,–,–,–,–,–,–,99.94%,99.92%,99.93%,99.85%,"purity % ([2]; 60° C., day 0): 99.94%; purity % ([2]; 60° C., day 5): 99.83%; purity % ([2]; 60° C., day 10): 99.77%; purity % ([2]; 60° C., day 30): 99.50%; purity % ([2]; RH 75%, day 0): 99.94%; purity % ([2]; RH 75%, day 5): 99.93%; purity % ([2]; RH 75%, day 10): 99.94%; purity % ([2]; RH 75%, day 30): 99.94%; purity % ([2]; RH 90%, day 0): 99.94%; purity % ([2]; RH 90%, day 5): 99.93%; purity % ([2]; RH 90%, day 10): 99.94%; purity % ([2]; RH 90%, day 30): 99.93%; crystal stability (in words) [2]: good crystal stability; purity % ([2]; illumination, day 0): 99.94%; purity % ([2]; illumination, day 5): 99.92%; purity % ([2]; illumination, day 10): 99.92%; purity % ([2]; illumination, day 30): 99.85%"
"CCOc1cc2ncc(C#N)c(Nc3ccc(OCc4ccccn4)c(Cl)c3)c2cc1NC(=O)/C=C/[C@H]1CCCN1C.O=C(O)/C=C\C(=O)O [amorphous, reference compound]",99.31%,99.21%,99.13%,98.57%,99.31%,99.35%,99.33%,99.09%,99.31%,95.76%,94.05%,85.09%,99.31%,98.04%,96.65%,93.48%,–,–,–,–,"stability after long-term storage (in words) ([1]; illumination, listed as amorphous form): poor stability"
